Measurements taken from paper PMC3034772 (Pharmaceutical research, 2010).
Several values for one entry are separate records, joined by “and”; a condition that tells them apart may be missing. Identical values can stand only once. Like-named read-outs stand apart in the source and are kept apart here.

Assays:
[1] = Charge class Q, dominant calculated charge state at pH 7.4; type: physicochemical
[2] = In combo PAMPA-BBB model, calculated log Po in situ
[3] = PAMPA; for Pm^7.4: pH 7.4
[4] = cited from earlier work
[5] = PAMPA
[6] = in vivo; cited from earlier work
[7] = mouse, in vivo; cited from earlier work
[8] = physchem
[9] = physchem; settings: pKa
[10] = dominant calculated concentration fraction of the drug in a charge state
[11] = difference observed minus calculated, external set, no efflux inhibition

Structure (SMILES): N[C@@H](Cc1ccc(O)c(O)c1)C(=O)O [L-DOPA]
- Q (charge class) [1, 10]: ±
- obs–calc (log Po^in situ) [2, 11]: 0.7 and 0.9
- log PABL [3]: −4.47
- log Po [3]: −7.81
- Pm^7.4 [3]: 0.01
- pKa ([4]; ref [39]): 8.77

Structure (SMILES): COc1cccc2c1C(=O)c1c(O)c3c(c(O)c1C2=O)C[C@@](O)(C(C)=O)C[C@@H]3O[C@H]1C[C@H](N)[C@H](O)[C@H](C)O1 [Daunomycin]
- Q (charge class) [1]: +
- obs–calc (log Po^in situ) [2]: 0.8
- log PABL [3]: −4.38
- log Po [3]: −2.71
- log Ppara [3]: −6.91
- Pm^7.4 [3]: 10
- pKa ([4]; ref [39]): 12.00
- pKa ([4]; second pKa column, ref [39]): 9.70

Structure (SMILES): OCCOCCN1CCN(C2=Nc3ccccc3Sc3ccccc32)CC1 [Quetiapine]
- Q (charge class) [1, 10]: 0
- obs–calc (log Po^in situ) [2, 11]: 0.2
- log PABL [3]: −3.88
- log Po [3]: −2.98
- log Ppara [3]: −6.02
- Pm^7.4 [3]: 583
- pKa ([4]; ref [38]): 7.30
- pKa ([4]; second pKa column, ref [38]): 2.27

Structure (SMILES): CSc1ccc2c(c1)N(CCC1CCCCN1C)c1ccccc1S2 (stereo not shown) [Thioridazine]
- Q (charge class) [1, 10]: +
- obs–calc (log Po^in situ) ([2]; no efflux inhibition): −0.8
- log PABL [3]: −2.84
- log Po [3]: −1.27
- log Ppara [3]: −6.23
- Pm^7.4 [3]: 1972
- pKa ([4]; ref [11]): 8.82

Structure (SMILES): CC(C)(C)NC(=O)[C@@H]1CN(Cc2cccnc2)CCN1C[C@@H](O)C[C@@H](Cc1ccccc1)C(=O)N[C@H]1c2ccccc2C[C@H]1O [Indinavir]
- log Po [5]: −5.17
- Q (charge class) [1, 10]: 0
- obs–calc (log Po^in situ) [2, 11]: −0.4
- obs–calc (log Po^in situ) ([2]; efflux inhibition mdr1a(−/−)): 0.3
- pKa ([4]; ref [11]): 4.91

Structure (SMILES): O=c1[nH]c2ccccc2n1CCCN1CCC(n2c(=O)[nH]c3cc(Cl)ccc32)CC1 [Domperidone]
- PS [6]: 5 10^−4 mLg^−1s^−1
- log PS [6]: −3.29
- PS [7]: 16 10^−4 mLg^−1s^−1
- pKa [8]: 9.38
- Q (charge class) [1, 10]: +

Structure (SMILES): CCCN(CCC)S(=O)(=O)c1ccc(C(=O)O)cc1 [Probenecid]
- Q (charge class) [1, 10]: −
- obs–calc (log Po^in situ) ([2]; efflux inhibition mdr1a(−/−)): −0.6
- obs–calc (log Po^in situ) ([2]; no efflux inhibition): −0.7
- log PABL [3]: −3.52
- log Po [3]: −2.97
- log Ppara [3]: −6.10
- Pm^7.4 [3]: 0.06
- pKa ([4]; ref [38]): 3.16

Structure (SMILES): COc1ccc(CCN2CCC(Nc3nc4ccccc4n3Cc3ccc(F)cc3)CC2)cc1 [Astemizole]
- Q (charge class) [1, 10]: +
- obs–calc (log Po^in situ) ([2]; efflux inhibition mdr1a(−/−)): −1.2
- obs–calc (log Po^in situ) ([2]; no efflux inhibition): −1.3
- log PABL [3]: −3.54
- log Po [3]: −1.39
- log Ppara [3]: −6.54
- Pm^7.4 [3]: 2422
- pKa ([4]; ref [46]): 8.60
- pKa ([4]; second pKa column, ref [46]): 5.84

Structure (SMILES): COc1cc2nc(N3CCN(C(=O)c4ccco4)CC3)nc(N)c2cc1OC [Prazosin]
- pKa [9]: 6.79

Structure (SMILES): O=c1n(CCCN2CCN(c3cccc(Cl)c3)CC2)nc2ccccn12 [Trazodone]
- pKa [8]: 7.46
- Q (charge class) [1, 10]: 0
- obs–calc (log Po^in situ) ([2]; no efflux inhibition): 0.0
- log PABL [3]: −3.90
- log Po [3]: −2.94
- log Ppara [3]: −5.99
- Pm^7.4 [3]: 534

Structure (SMILES): CNS(=O)(=O)Cc1ccc2[nH]cc(CCN(C)C)c2c1 [Sumatriptan]
- pKa [8]: 9.64
- Q (charge class) [1, 10]: +
- obs–calc (log Po^in situ) [2, 11]: 0.0
- log PABL [3]: −4.65
- log Po [3]: −4.86
- log Ppara [3]: −7.51
- Pm^7.4 [3]: 0.4

Structure (SMILES): CN(C)CCC=C1c2ccccc2COc2ccccc21 [Doxepin]
- Q (charge class) [1, 10]: +
- obs–calc (log Po^in situ) ([2]; no efflux inhibition): 0.3
- log PABL [3]: −3.13
- log Po [3]: −1.60
- log Ppara [3]: −6.47
- Pm^7.4 [3]: 223
- pKa ([4]; ref [11]): 9.45

Structure (SMILES): CCC1(C)CC(=O)NC1=O (stereo not shown) [Ethosuximide]
- pKa [8]: 9.18
- Q (charge class) [1, 10]: 0
- obs–calc (log Po^in situ) ([2]; no efflux inhibition): 0.2
- log Po [3]: −5.83
- log Ppara [3]: −6.87
- Pm^7.4 [3]: 1.5

Structure (SMILES): OCCN1CCN(CCCN2c3ccccc3Sc3ccc(C(F)(F)F)cc32)CC1 [Fluphenazine]
- pKa [8]: 7.76
- Q (charge class) [1, 10]: +
- obs–calc (log Po^in situ) ([2]; no efflux inhibition): −1.0
- log PABL [3]: −3.24
- log Po [3]: −2.36
- log Ppara [3]: −5.54
- Pm^7.4 [3]: 1326
